The text below walks through data of patent US20050202465A1, “Thymidylate synthase gene and metastasis” (The Johns Hopkins University, priority 2004, published 2005).

The test deals with colorectal cancer metastases. The test is described as follows: Overall survival after surgical removal of metastases in 5-FU treated colorectal cancer patients, by TYMS amplification status. It is filed as in vivo, human. To be noted: for Median survival after metastasis removal / Survival range after metastasis removal: previous treatment 5-FU. How it is done:
Tissue samples, including normal tissues, primary tumors, and metastases were obtained from colorectal cancer patients undergoing surgery at the Johns Hopkins Hospital between 1990 and 2002. A diagnosis of colorectal cancer was established by histological examination of surgical specimens and clinical information was retrospectively retrieved from patient records. Acquisition of tissue specimens and examination of clinical records was approved by an institutional review board and was performed in accordance with HIPAA regulations. Metastatic samples were obtained from complete resections, debulking, or biopsies of metastatic lesions.
Overall survival was calculated from the date of the surgical excision of the metastasis to the date of death or last follow-up and computed by Kaplan-Meier method. Data were censored when patients were lost to follow-up.
A corollary of this idea is that such patients would fare worse than those without TYMS amplification, as post-surgical therapy of patients with metastatic cancers often involves retreatment with 5-FU plus other agents (see Introduction). To evaluate this possibility, we compared the survival of patients with metastatic lesions that had previously been treated with 5-FU, segregated according to TYMS amplification status. Although the average age, stage at initial diagnosis, and metastasis size and location were similar between patients with and without increased TYMS gene copies, the median overall survival following surgical removal of metastases among patients with TYMS gene amplification was 329 days, as compared with 1021 days for patients without TYMS amplification (Table 2, p<0.01, t-Test). […] These differences were also significant in Kaplan-Meier analyses (FIG. 4).

Setting [1] is: Group A (n = 6), TYMS amplified in metastasis.
Setting [2] is: Group B (n = 21), TYMS not amplified in metastasis.

As to `O=c1[nH]cc(F)c(=O)[nH]1` [5-FU, 5-fluorouracil], under “5-FU treated patients, proportional hazard model, 95% confidence interval 1.06-11.4, p<0.05”, the “Relative risk of death, patients with TYMS amplification vs without” value is reported as 3.5 fold. In addition, under setting [1], the “Median survival after metastasis removal” value is reported as 329 days and the “Survival range after metastasis removal” value was “(109-708 days)”. In addition, under setting [2], the “Median survival after metastasis removal” value was determined as 1021 days and the “Survival range after metastasis removal” value is given as “(255-3790 days)”.
